Laboratory results: PMC3199943, “Screening the MayBridge Rule of 3 Fragment Library for Compounds That Interact with the Trypanosoma brucei myo-Inositol-3-Phosphate Synthase and/or Show Trypanocidal Activity” (Molecular Biology International, 2011)
Read-outs that look alike come from different tables or passages of the source.

Legend:
[1] = biological target: T1, TbINO1 (Trypanosoma brucei brucei, UniProt Q5QQ46); test: biochemical; format: binding; details: for TbINO1 Tm increase: positive control
T1 sequence (Q5QQ46 1-528): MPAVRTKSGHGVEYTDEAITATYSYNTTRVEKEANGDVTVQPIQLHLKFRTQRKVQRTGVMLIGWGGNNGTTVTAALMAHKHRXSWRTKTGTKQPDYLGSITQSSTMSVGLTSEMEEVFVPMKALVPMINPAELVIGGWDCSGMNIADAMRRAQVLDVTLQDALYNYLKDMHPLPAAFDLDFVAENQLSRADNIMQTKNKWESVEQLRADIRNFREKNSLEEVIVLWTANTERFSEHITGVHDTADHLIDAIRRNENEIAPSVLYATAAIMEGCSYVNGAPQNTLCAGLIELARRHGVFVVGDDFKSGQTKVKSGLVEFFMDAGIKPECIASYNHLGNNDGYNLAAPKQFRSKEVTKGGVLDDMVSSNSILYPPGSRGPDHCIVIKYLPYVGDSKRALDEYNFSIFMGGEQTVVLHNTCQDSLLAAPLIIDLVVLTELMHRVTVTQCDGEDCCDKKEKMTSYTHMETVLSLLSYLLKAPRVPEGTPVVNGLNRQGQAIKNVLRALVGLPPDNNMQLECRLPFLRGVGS

[2] = test system: HeLa cells; test: cells; details: for viability at 500 µM: 65 h; for HeLa Cells Alamar Blue: Supplementary Table 1
In short: (§1)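 Alamar Blue read-out after a 5 h dye incubation that followed ~65 h compound exposure. Cells: HeLa or A549, 2 × 10^4/well, DMEM + 10% FCS + 2 mM L-Glutamine.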

[3] = test system: A549 cells; test: Cytotoxicity against A549 cells, Alamar Blue; format: cell-based; details: Supplementary Table 1, compound 0.5 mM, percentage of controls (n=1); for viability at 500 µM: Homo sapiens, A549, 65 h
In short: as §1

[4] = Homo sapiens, HeLa, read-out: HeLa Cells Alamar Blue
[5] = read-out: Tb Ino1 Tm Shift [˚C]
[6] = compound 0.5 mM, percentage of controls, mean ± SD (n=3) or SE (n=2)

SMILES | viability at 500 µM [2, 4] | ΔTm at 1000 µM [1, 5] | viability at 500 µM [3] | further results
O=CC[C@@H](O)[C@H](O)[C@H](O)COP(=O)(O)O [2-deoxy-glucose-6-phosphate, reference compound] | – | – | – | TbINO1 Tm increase ([1]; inhibitor, 4 mM): 2.84 ± 0.47 °C
NCc1ccoc1 [compound 5, 3‐furylmethylamine] | 101 ± 5.3% | 0.3 ± 0.06 °C | 113% | –
Cc1cc(N)[nH]n1 [compound 6, 3‐methyl‐1H‐pyrazol‐5‐amine] | 102 ± 3.3% | 0.2 ± 0.06 °C | 121% | –
Cn1nccc1N [compound 7, 1‐methyl‐1H‐pyrazol‐5‐ylamine] | 106 ± 6.2% | 0.12 ± 0.06 °C | 124% | –
Cn1ccc(N)n1 [compound 8, 1‐methyl‐1H‐pyrazol‐3‐amine] | 107 ± 7.8% | 0.09 ± 0.07 °C | 122% | –
Cc1cc(N)no1 [compound 9, 5‐methylisoxazol‐3‐amine] | – | 0.13 ± 0.06 °C | 112% | viability at 500 µM ([2]; Homo sapiens, HeLa, read-out: HeLa Cells Alamar Blue, Supplementary Table 1, compound 0.5 mM, percentage of controls, mean ± SD (n=3) or SE (n=2)): 105 ± 6.2%
CC1OCCC1=O (centres unmarked) [compound 11, 2‐methyltetrahydrofuran‐3‐one] | 101 ± 5.4% | 0.77 ± 0.06 °C | 85.3% | –
O=C1CCOCC1 [compound 12, tetrahydro‐4H‐pyran‐4‐one] | 100 ± 3.5% | 0.23 ± 0.07 °C | 97.4% | –
C1CNCCNC1 [compound 13, 1,4‐diazepane] | 88.5 ± 11.1% | 0.4 ± 0.07 °C | 82.4% | –
Cn1cncc1C#N [compound 15, 1‐methyl‐1H‐imidazole‐5‐carbonitrile] | 101 ± 9.5% | 0.08 ± 0.07 °C | 90% | –
Cc1ccc(N)nc1 [compound 16, 5‐methylpyridin‐2‐amine] | 101 ± 1.1% | 0.12 ± 0.06 °C | 89.4% | –
Cc1ccc[nH]c1=O [compound 17, 3‐methyl‐1,2‐dihydropyridin‐2‐one] | 106 ± 11.4% | 0.81 ± 0.08 °C | 87.2% | –
OCc1ccncc1 [compound 18, 4‐pyridinylmethanol] | 104 ± 3.9% | 0.36 ± 0.07 °C | 102% | –
Cc1cccc(O)n1 [compound 19, 6‐methylpyridin‐2‐ol] | 103 ± 7.6% | 0.09 ± 0.08 °C | 85.6% | –
CC(=O)c1cc[nH]c1 [compound 20, 1-(1H-pyrrol-3-yl)ethan-1-one] | 102 ± 4.3% | – | 121% | viability at 500 µM ([2]; Homo sapiens, HeLa, read-out: HeLa Cells Alamar Blue (% survival)): 102 ± 4.3%; CC50 ([2]; Homo sapiens, HeLa, read-out: HeLa ED50): > 5 mM; ΔTm at 1000 µM ([1]; read-out: TbIno1 Tm shift [°C]): 1.88 ± 0.08 °C
OCc1cnccn1 [compound 23, 2‐pyrazinylmethanol] | 77.5 ± 12.3% | 0.27 ± 0.07 °C | 75.9% | –
Cc1cc(N)n(C)n1 [compound 26, 1,3‐dimethyl‐1H‐pyrazol‐5‐amine] | 85.5 ± 9.4% | 0.54 ± 0.07 °C | 70.1% | –
O=C(O)c1ccco1 [compound 27, 2‐furoic acid] | 95.7 ± 9.4% | 0.17 ± 0.06 °C | 107% | –
N#CC(c1ccccc1)N1CCOCC1 (centres unmarked) [compound 638, 2‐morpholino‐2‐phenylacetonitrile] | 80.5 ± 8.2% | – | 89.8% | –
c1ccc(-c2cn3c(n2)SCC3)cc1 [compound 639, 6‐phenyl‐2,3‐dihydroimidazo[2,1‐b][1,3]thiazole] | – | – | – | HeLa Cells Alamar Blue [2, 6]: 61 ± 9.8 percentage of controls; A549 Cells Alamar Blue [3]: 109.1 percentage of controls

SMILES | viability at 500 µM [2, 4] | ΔTm at 1000 µM [1, 5] | viability at 500 µM [3] | further results
O=C(O)CSc1ccc(Cl)cc1 [compound 641, 2‐[(4‐chlorophenyl)thio]acetic acid] | 105 ± 3.7% | – | 119% | –
Cc1oc(-c2ccccc2)nc1CCO [compound 643, 2‐(5‐methyl‐2‐phenyl‐1,3‐oxazol‐4‐yl)ethan‐1‐ol] | – | – | – | HeLa Cells Alamar Blue [2, 6]: 45.5 ± 7.7 percentage of controls; A549 Cells Alamar Blue [3]: 104.4 percentage of controls
CC(=O)Nc1ccc2c(c1)CCCC2=O [compound 644, N1‐(5‐oxo‐5,6,7,8‐tetrahydronaphthalen‐2‐yl)acetamide] | – | – | – | HeLa Cells Alamar Blue [2, 6]: 99.2 ± 7.5 percentage of controls; A549 Cells Alamar Blue [3]: 93.5 percentage of controls
O=C(O)c1ccc(-c2ccccc2)s1 [compound 649, 5‐phenylthiophene‐2‐carboxylic acid] | 122 ± 18.7% | – | 141% | –
O=C(O)c1cccc(-c2ccsc2)c1 [compound 650, 3‐thien‐3‐ylbenzoic acid] | 114 ± 15.9% | – | 165% | –
NC(=O)c1ccccc1N1CCCCC1 [compound 651, 2‐piperidinobenzamide] | 82.4 ± 5.4% | – | 93.1% | –
CNCc1cccc(-c2nccs2)c1 [compound 653, N‐methyl‐3‐(1,3‐thiazol‐2‐yl)benzylamine] | 93.3 ± 2.7% | – | 99.6% | –
CNCc1ccc(-c2nccs2)cc1 [compound 654, N‐methyl‐4‐(1,3‐thiazol‐2‐yl)benzylamine] | 66.2 ± 16.9% | – | 114% | –
NCc1cccc(CN2CCCCC2)c1 [compound 655, 3‐piperidin‐1‐ylmethyl benzylamine] | 73.7 ± 15.9% | – | 126% | –
CNCc1cccc(N2CCCCC2)c1 [compound 656, N‐methyl‐N‐(3‐piperidin‐1‐ylbenzyl)amine] | 27.4 ± 13.3% | – | 104% | –
CNCc1ccc(N2CCCCC2)cc1 [compound 657, N‐methyl‐N‐(4‐piperidin‐1‐ylbenzyl)amine] | 40.9 ± 12% | – | 77.4% | –
NCc1ccc(CN2CCCCC2)cc1 [compound 658, [4‐(piperidinomethyl)phenyl]methylamine] | – | – | – | HeLa Cells Alamar Blue [2, 6]: 22.8 ± 5.5 percentage of controls; A549 Cells Alamar Blue [3]: 123.5 percentage of controls
O=C(O)Cc1ccc(Cl)c(Cl)c1 [compound 659, 2‐(3,4‐dichlorophenyl)acetic acid] | 74 ± 17.1% | – | 106% | –
COc1cc2c(cc1OC)C(C)=NCC2 [compound 664, 6,7‐dimethoxy‐1‐methyl‐3,4‐dihydroisoquinoline] | – | – | – | HeLa Cells Alamar Blue [2, 6]: 75.4 ± 2.2 percentage of controls; A549 Cells Alamar Blue [3]: 77.7 percentage of controls
O=C(O)c1ccc(CN2CCCC2)cc1 [compound 665, 4‐(pyrrolidin‐1‐ylmethyl)benzoic acid] | 90.3 ± 6.3% | – | 104% | –
OCc1ccc(CN2CCCCC2)cc1 [compound 669, [4‐(piperidin‐1‐ylmethyl)phenyl]methanol] | 93.2 ± 12.6% | – | 121% | –
CNCc1ccnc(N2CCCCC2)c1 [compound 671, N‐methyl‐N‐[(2‐piperidin‐1‐ylpyridin‐4‐yl)methyl]amine] | – | – | – | HeLa Cells Alamar Blue [2, 6]: 54.8 ± 9.2 percentage of controls; A549 Cells Alamar Blue [3]: 82.7 percentage of controls
CCOC(=O)c1sc(Cl)nc1C [compound 672, ethyl 2‐chloro‐4‐methyl‐1,3‐thiazole‐5‐carboxylate] | – | – | – | HeLa Cells Alamar Blue [2, 6]: 89.6 ± 12.5 percentage of controls; A549 Cells Alamar Blue [3]: 60.5 percentage of controls
O=C[C@H](O)[C@@H](O)[C@H](O)[C@H](O)COP(=O)(O)O [glucose-6-phosphate, reference compound] | – | – | – | TbINO1 Tm increase ([1]; substrate, 5 mM): 0.70 ± 0.28 °C
